US20260335282A1, “NOVEL 3-ARYLIDENE-2-INDOLINONE DERIVATIVES FOR THERAPEUTIC USE” (ISTANBUL UNIVERSITESI REKTORLUGU, priority 2022, published 2026)
Entries after “also recorded” stand apart in the source; their conditions may differ. Where two headings read alike, the source gives them in different places.

Tests used:
Type in all cases: cell-based, human
A549 cells = experiment: MTT cytotoxicity, lung cancer cells A549; conditions: no * mark (incubation time not specified)
Text: (§1) The cytotoxicity, general tyrosine kinase inhibitory effects and cell death (apoptosis/necrosis) assays of 1-benzyl-3-(1H-indol-3-ylmethylidene)-1,3-dihydro-2H-indol-2-one derivatives (Formula 5) of the present invention are studied by the following methods. […] HUVEC (human umbilical vein endothelial cell), MCF-10F (human breast epithelial cell) and Beas2b (human lung bronchial epithelial cell) cell lines have been used as healthy control cells in MTT experiments.
(§2) Beas2b (human lung bronchiole epithelial cell) and HEK293 (renal tubule epithelium) cells used as normal cell lines were cultured in RPMI medium, and HUVEC (human umbilical cord endothelial cells) and MCF-10F (human breast epithelial cell) cells are cultured in DMEM medium containing 100 µg/ml penicillin/streptomycin. The cells, which covered 70% of the culture flask, are washed with phosphate buffer and then removed from the surface of the flask by application of trypsin-ethylenediamine tetraacetic acid (Trypsin-EDTA; 0.25%) solution, passaged, counted and seeded on appropriate plates before each experiment. Cells are treated with a total of 45 2-indolinone compounds (5) at concentrations of 0.1, 1, 5 and 10 μM. Stock compounds are prepared in 1 ml dimethylsulfoxide (DMSO) and 4 different dilutions were prepared with medium and performed to the cells. Control group cells are treated with DMSO at a similar concentration to the experimental groups.
(§3) MTT (3-(4,5-dimethylthiazol-2-yl)-2,5-diphenyl-2H-tetrazolium bromide) colorimetric assay provides quantitation of viable cells with ongoing mitochondrial activity in culture medium. According to the standard procedure in cell culture conditions, cells are maintained in RPMI-1640 and DMEM culture media containing 10% FBS and 1% penicillin/streptomycin. The trypan blue test is used for cell counts.
(§4) The effects of 45 2-indolinone compounds (5) on cell viability in all cancer cell lines are investigated by MTT assay. Cells are seeded in a 96-well flat bottom plate with 5000 cells in each well and 2-indolinone compounds (5) at concentrations of 0.1, 1, 5 and 10 μM are performed to the cells the next day. After 48 and/or 72 hours following treatment with 2-indolinone compounds, 50 μl of the supernatant is slowly discarded (as it was acid medium) and MTT at a concentration of 5 mg/ml is added to each well in a volume of 10 μl. After incubation for 4 hours, the formazan crystals formed in the wells are dissolved by adding 100 μl DMSO and the optical density is read at 570 nm test wavelength and 630 nm reference wavelength. Cell viability is expressed as % cell viability by comparing the absorbance of control and test wells. IC50 value is calculated from the dose-response curves prepared for each compound. In addition, the possible DMSO effect is eliminated by preparing negative control wells compatible with the amount of DMSO contained in the compounds. To understand the reaction of the compounds with MTT, cell-free (MTT+compounds) negative controls are prepared at the concentrations used (Mosmann, 1983). […] The absorbance values obtained are compared to the control and statistically evaluated by unpaired t-test using “Graphpad Prism 5.04” software. “P<0.05” is accepted as significant. When evaluating cytotoxic effects, the present inventors aim for the inventive compounds to be effective in cancer cells and ineffective in healthy cells. The inventive compounds have also been compared with sunitinib, one of the reference chemotherapy drugs currently used in treatment.
(§5) Among the compounds of the present invention, those that killed cancer cells by at least 50% (p<0.05) are selected and tested whether a 10-fold concentration of the M concentration at the IC50 value is toxic to normal healthy cells.

CAKI-1 cells = experiment: MTT cytotoxicity, kidney cancer cells CAKI-1
Text: as §1, §2, §3, §4, §5

[1] = system: general tyrosine kinase activity in MIA PaCa-2 pancreas cancer cells; experiment: General tyrosine kinase activity (ELISA) in MIAPaCa-2 cells; conditions: 72 hours, IC50 concentration
Experimental: Takara Universal Tyrosine Kinase Assay Kit is used to determine the effects of 11 2-indolinone compounds (Y1, Y2, Y3, Y4, Y5, Y8, […], […], Y21, Y23, 20C, 22C) on general tyrosine kinase activity in cancer cells. Cells are seeded in 6-well plates (4.10^5 cells/well) and the IC50 concentration of each selected molecule is performed to the cells for 48 or 72 hours. Cells in the control group are incubated with medium only. At the end of the incubation period, the cells in each well are washed with PBS and cells are removed from the wells using a cell scraper via 1 ml of the extraction buffer in the kit. The cell lysate is transferred to ependorf tubes and centrifuged at 10.000 g for 10 minutes at +4° C. and the supernatant is used as a sample for activity determination. After the extracts obtained from the control and experimental groups are diluted 1:25, 40 μl extracts is transferred to two wells in the 96-well plate in the kit. In addition, the standard solution in the kit is diluted according to the kit instructions and each concentration is transferred 40 μl into three wells. 10 μl of 40 mM ATP-2Na solution is added to all wells and the plate is incubated at 37° C. for 30 minutes. After incubation, all wells are washed 4 times with wash buffer. 100 μl of blocking solution is added to each well and incubated again at 37° C. for 30 minutes. After incubation, the liquid in the wells is discarded and 50 μl of anti-phosphotyrosine-HRP solution is added to each well and incubated at 37° C. for 30 minutes. The wells are washed again four times with wash buffer and 100 μl of HRP-substrate solution (TMBZ) is added to each well and incubated at 37° C. for 15 minutes. The reaction is finished by adding 100 μl of stop solution to each well and the optical density in each well is measured at 405 nm with a microplate reader (BioTek, USA). The tyrosine kinase activity in each sample is calculated from the standard curve obtained from the absorbance values of the standard solutions with the kit (Chan W Y, Lau P M, Yeung K W, Kong S K. The second generation tyrosine kinase inhibitor dasatinib induced eryptosis in human erythrocytes—An in vitro study. Toxicol Lett. 2018; 295:10-21). This activity is normalized compared to the control group by dividing by the amount of protein in each sample.
The effects of 11 2-indolinone compounds (Y1, Y2, Y3, Y4, Y5, Y8, Y14, Y21, Y23, 20C and 22C) having the structure of formula (5), which are prominent with their cytotoxicity in A498, MIAPaCa-2 and HCT-116 cancer cell lines and nontoxic properties in healthy cells, on general tyrosine kinase activity in cancer cells are determined.

HCT-116 cells = experiment: MTT cytotoxicity, colon cancer cells HCT-116; conditions: no * mark (incubation time not specified)
Text: as §1, §2, §3, §4

MIAPaCa-2 cells [2] = experiment: MTT cytotoxicity, pancreas cancer cells MIAPaCa-2; conditions: for selectivity index: MCF-10F/Beas2b vs MIAPaCa-2; for IC50: MTT
Text: as §1, §2, §3, §4

MCF-7 cells = experiment: MTT cytotoxicity, breast cancer cells MCF-7; conditions: MTT
Text: as §1, §2, §3, §4, §5

MCF-10F/Beas2b cells = experiment: MTT cytotoxicity, healthy cells MCF-10F/Beas2b; conditions: for Selectivite Index, MCF-10F/Beas2b (Table 2): MCF-10F/Beas2b vs colon or pancreas cancer cells, cancer line not given; for IC50: MTT, no * mark (incubation time not specified)
Text: as §1, §2, §3, §4, §5

A498 cells = experiment: MTT cytotoxicity, kidney cancer cells A498; conditions: MTT, no * mark (incubation time not specified)
Text: as §1, §2, §3, §4, §5

MDA-MB-231 cells = experiment: MTT cytotoxicity, breast cancer cells MDA-MB-231; conditions: read-out: IC50, MDA-MB-231 (breast), MTT
Text: as §1, §2, §3, §4, §5

HT-29 cells = experiment: MTT cytotoxicity, colon cancer cells HT-29; conditions: MTT, no * mark (incubation time not specified)
Text: as §1, §2, §3, §4

HUVEC cells = experiment: MTT cytotoxicity, healthy cells HUVEC; conditions: for Selectivite Index, HUVEC (Table 2): HUVEC vs colon or pancreas cancer cells, cancer line not given; for IC50: MTT, no * mark (incubation time not specified)
Text: as §1, §2, §3, §4, §5

[3] = system: pancreas and kidney cancer cells; experiment: Apoptosis detection, Annexin V/PI flow cytometry, pancreas and kidney cancer cells
Experimental: (§6) After incubation with 2-indolinone compounds (IC50 μM concentration; 48 and/or 72 hours), cells are washed twice with PBS and the cell pellet is suspended in Annexin V binding buffer. After this incubation, cells are incubated with FITC-conjugated Annexin V and propidium iodine staining solution for 15 minutes in the dark and at room temperature. Then, cells are analyzed by flow cytometry (Beckman coulter, Navios) (Wlodkowic, D., Skommer, J, Darzynkiewicz, Z. 2009. Flow cytometry-based apoptosis detection, Methods Mol Biol., 559, 1-14).
Whether the 2-indolinone derivatives (5) with the highest selectivity index and general TKI activity stimulated apoptosis and necrosis is determined by Annexin V and propidium iodine staining in pancreas and kidney cancer cells. Annexin V/PI flow cytometry apoptosis values of the tested compounds Y1, Y2, Y3, Y4, Y8 and Y14 are found to be 40% and above in correlation with MTT results. The apoptosis rates of the control groups and the substances are analyzed by t test in GraphPad version 9.0.

MIAPaCa-2 cells [4] = experiment: Apoptosis/necrosis detection, Annexin V/PI flow cytometry, MiaPaca-2
Experimental: as §6

[5] = no * mark (incubation time not specified)
[6] = no * mark (incubation time not given)
[7] = *: effective 72 hours after incubation

Row | Compound | IC50 (A549 cells) | IC50 (CAKI-1 cells; [5]) | general tyrosine kinase activity compared to control [1] | IC50 (HCT-116 cells) | selectivity index (MIAPaCa-2 cells [2]) | IC50 (MIAPaCa-2 cells [2]; [5]) | IC50 (MCF-7 cells; [5]) | Selectivite Index, MCF-10F/Beas2b (Table 2) (MCF-10F/Beas2b cells) | IC50 (A498 cells) | IC50 (MDA-MB-231 cells; [6]) | IC50 (HT-29 cells) | Selectivite Index, HUVEC (Table 2) (HUVEC cells) | IC50 (HUVEC cells) | IC50 (CAKI-1 cells; [7]) | IC50 (MIAPaCa-2 cells [2]; [7]) | IC50 (MCF-10F/Beas2b cells) | other results
1 | Cc1ccc(CN2C(=O)/C(=C\c3c[nH]c4ccccc34)c3ccccc32)cc1 [Y21] | > 10 µM | > 10 µM | significantly decreased | 3.14 µM | > 25 | 0.4 µM | 8.77 µM | > 25.00 | 4.06 µM | > 10 µM | > 10 µM | 6.15 | 2.46 µM | – | – | – | IC50 (MIAPaCa-2 cells [2]): 0.4 µM
2 | O=C1/C(=C\c2c[nH]c3ccccc23)c2cc(Cl)ccc2N1Cc1ccccc1 [Y2] | 4.04 µM | 4.25 µM | significantly decreased; also recorded: decreased the general tyrosine kinase activity | 1.44 µM | > 21 | 0.48 µM | 4.16 µM | > 20.83 | 2.36 µM | 4.96 µM | 1.52 µM | 2.21 | 1.06 µM | – | – | – | Annexin V/PI flow cytometry apoptosis values [3]: ≥ 40%
3 | O=C1/C(=C\c2c[nH]c3ccccc23)c2cc(F)ccc2N1Cc1ccccc1 [Y5] | 7.81 µM | 3.42 µM | significantly decreased; also recorded: decreased the general tyrosine kinase activity | 2.05 µM | > 37 | 0.27 µM | 4.44 µM | > 37.04 | 4.32 µM | 7.94 µM | 2.98 µM | 8.04 | 2.17 µM | – | – | – | necrosis compared to control (MIAPaCa-2 cells [4]; MiaPaca-2): did not cause necrosis; apoptosis (early and late) compared to control (MIAPaCa-2 cells [4]; MiaPaca-2, IC50 values): increase in apoptosis at IC50 values was statistically significant
4 | O=C1/C(=C\c2c[nH]c3ccccc23)c2cc(OC(F)(F)F)ccc2N1Cc1cccc(F)c1 [2C] | 3.58 µM | – | – | 2.88 µM | – | – | 8.82 µM | – | 4.78 µM | 2.91 µM | > 10 µM | – | 2.56 µM | 5.46 µM | 7.35 µM | 3.07 µM | –
5 | O=C1/C(=C\c2c[nH]c3ccccc23)c2cc(OC(F)(F)F)ccc2N1Cc1cccc(Cl)c1 [4C] | 2.42 µM | – | – | 1.13 µM | – | – | – | – | 3.05 µM | – | > 10 µM | – | 0.97 µM | 2.79 µM | 3.67 µM | 1.73 µM | IC50 (MCF-7 cells; [7]): 3.06 µM; IC50 (MDA-MB-231 cells; [7]): 3.07 µM
6 | O=C1/C(=C\c2c[nH]c3ccccc23)c2cccc(Cl)c2N1Cc1ccc(F)cc1 [24C] | 8.08 µM | – | – | 2.35 µM | – | 1.12 µM | 5.08 µM | – | 2.6 µM | 7.41 µM | 0.73 µM | – | 1.26 µM | 5.72 µM | – | 1.26 µM | –
